Test results published in patent publication US20040063661A1, “Treatment of statin side effects” (priority 2000, published 2004).
Where “and” joins values, the source holds several entries; their conditions need not be identical. Identical values can stand only once. Marks after values point to notes of the source that are not given here.

Legend:
Type in all cases: in vivo, human
[1] = Pilot clinical study Q10: blood Q10 level (patient compliance); settings: one line per patient
Method: (§1) Commencing at WK(0) and continuing through the study the patients were asked to take a daily dose of 300 mg of Coenzyme Q10 (Q10), which was administered as […] sof gel capsules (commercially available from R. P. Scherer), morning and evening.

alanine aminotransferase = test: Pilot clinical study Q10: blood alanine aminotransferase concentration (measure of liver damage)
Method: as §1

[2] = system: serum cholesterol, HDL-cholesterol or LDL-cholesterol and triglyceride levels; test: Pilot clinical study Q10: serum lipids levels under statin therapy; settings: patients #1-#4; 300 mg Q10 daily; WK(0) vs WK(+4)
Method: as §1

muscle pain = test: Case report: Coenzyme Q10 in a patient with unexplained muscle pain and viral infections (Example 1)
Source text: The patient had suffered for a number of years from unexplained muscle pain which started in the legs and gradually spread to other skeletal muscles. During the worst of the symptoms, the patient was unable to raise their arms above their head and was unable to drive a car. Walking was also difficult. […] The patient was eventually diagnosed as suffering from a number of viral infections: cytomegalovirus (CMV), Epstein-Barr virus (EBV) and hepatitis A. The patient was started on a regimen of 150 mg per day of Coenzyme Q10. […] The improvement was reported as permanent provided that the patient kept taking Q10.

chronic fatigue syndrome = test: Case report: self assessed well being, day to day tasks and muscle pain in a chronic fatigue syndrome patient on Q10 (Example 2); settings: for Feeling of Well Being / Absence of Muscle Pain / Heavy Work (1 hour) / Light Work/Walking / Sedentary Work / Work: teacher / Wellness Score (out of 60): Q10 2×50 mg per day; for Feeling of Well Being: self rated 0-10 (10 = best); for Absence of Muscle Pain: self rated 0-10 (10 = complete absence of pain); for Wellness Score (out of 60): sum of the six self ratings
Method: The patient had suffered for a number of years from chronic fatigue syndrome. The condition was severe enough such that they were unable to pursue their teaching career and day to day tasks were generally performed with a general sense of fatigue and muscle pain. Muscle pain was generally controlled with over the counter (ie. non-prescription) analgesics containing 500 mg paracetamol and 8 mg codeine phosphate, 2-4 tablets per day. Table 1 provides a summary of the patient's self assessed levels of general sense of well being, ability to perform day to day tasks and level of (or relative absence of) muscle pain during a dosing regimen of 2×50 mg per day of Q10(50 mg taken each at breakfast and dinner). Levels were rated by the patient on a scale of 0-10, with 0 representing severe incapacity or pain and 10 representing the complete absence of pain or fatigue/excellent performance. FIG. 1 depicts the self assessed (absence of) pain levels for the patient, over a period of 30 days, on a scale of […], where 0 is severe pain and 10 relates to an absence of pain (wellness). On day 1 the patient commenced taking 100 mg of Q10 per day until day 10 when the dosage was increased to 200 mg per day

creatine kinase = test: Pilot clinical study Q10: blood creatine kinase concentration (measure of muscle trauma)
Method: as §1

[3] = system: statin induced muscle pain; test: Pilot clinical study Q10: McGill Pain Questionnaire (PRI, PPI); settings: for PRI (Pain Rating Index), first score / PRI (Pain Rating Index), second score: patients on statin therapy; for PRI (Pain Rating Index), first score / PRI (Pain Rating Index), second score / PPI (Present Pain Intensity): one line per patient
Source text: (§2) Table 2 outlines data for four patients (numbered #1-#4) undergoing statin therapy for treatment of hypercholesterolemia and who had reported suffering from varying levels of muscular pain and fatigue. This study is ongoing, but the results below follow the study with these four patients from week minus1 (WK(-1)) to week plus 4 (WK(+4)). Patients were either contacted or attended the clinic at weeks -1, 0, +1, +2 and +4. At the clinic on the first week (WK(-1)) details of the patients' statin medication were recorded and daily doses were noted. Patients were also scored for pain using the McGill Pain Questionnaire (Melzack, R., 1975 “The McGill Pain Questionnaire: Major Properties and Scoring Methods”. Pain 1:277-299, the disclosure of which is included herein in its entirety by way of reference) scales for Pain Rating Index (PRI) and Present Pain Intensity (PPI). In the PRI index, which comprises two scores, higher scores indicate increasing levels of pain. In the PPI index present pain is given a score of 0 to 5, where 0 represents no pain and 5 represents excruciating pain. Patients were also scored at WK(-1) for fatigue using the Fatigue Impact Scale (Fisk, J. D. et al, 1994, “Measuring the functional impact of fatigue: Initial Validation of the Fatigue Impact Scale”, Clinical Infectious Disease, 18 (Suppl 1):[…]-83, the disclosure of which is included herein in its entirety by way of reference). Questionnaires to determine PRI, PPI and FIS scores were conducted thereafter at weeks +1, +2 and +4. At weeks +1 and +2 the patients were contacted by telephone and were asked to mail their self assessment questionnaires to the clinic. Commencing at WK(0) and continuing through the study the patients were asked to take a daily dose of 300 mg of Coenzyme Q10 (Q10), which was administered as […] sof gel capsules (commercially available from R. P. Scherer), morning and evening.

statin induced fatigue = test: Pilot clinical study Q10: Fatigue Impact Scale (FIS); settings: for FIS (Fatigue Impact Scale): one line per patient
Source text: as §2

[4] = WK(+4), 300 mg Q10 daily from WK(0)
[5] = 150 mg per day of Coenzyme Q10, within several days
[6] = Day 1, self rated 0-10 (10 = excellent performance)
[7] = Day 2, self rated 0-10 (10 = excellent performance)
[8] = Day 3, self rated 0-10 (10 = excellent performance)
[9] = Day 4, self rated 0-10 (10 = excellent performance)
[10] = Day 5, self rated 0-10 (10 = excellent performance)
[11] = Week 2, self rated 0-10 (10 = excellent performance)
[12] = Week 12, self rated 0-10 (10 = excellent performance)
[13] = 300 mg Q10 daily to WK(+4), a few patients
[14] = WK(+1), 300 mg Q10 daily from WK(0)
[15] = WK(+2), 300 mg Q10 daily from WK(0)

With `COC1=C(OC)C(=O)C(C/C=C(\C)CC/C=C(\C)CC/C=C(\C)CC/C=C(\C)CC/C=C(\C)CC/C=C(\C)CC/C=C(\C)CC/C=C(\C)CC/C=C(\C)CCC=C(C)C)=C(C)C1=O` [Q10, Coenzyme Q10] the “Q10 (blood level)” value ([1]; WK(0), baseline before Q10) was 0.59 µg/mL and 0.46 µg/mL and 1.39 µg/mL, the “Q10 (blood level)” value [1, 4] was 2.42 µg/mL and 2.49 µg/mL and 1.92 µg/mL and 2.22 µg/mL and the “ALT (alanine aminotransferase concentration)” value (alanine aminotransferase; WK(0), baseline before Q10, normal range 0-40, one line per patient) was 31 units/L and 14 units/L and 33 units/L. For the same compound, the “ALT (alanine aminotransferase concentration)” value (alanine aminotransferase; WK(+4), 300 mg Q10 daily from WK(0), normal range 0-40, one line per patient) was 25 units/L and 11 units/L and 19 units/L and 35 units/L, the “effect on statin therapy with respect to serum cholesterol, HDL-cholesterol or LDL-cholesterol and triglyceride levels” value [2] was “did not significantly affect statin therapy” and the “general sense of well being (patient report)” value (muscle pain; [5]) was “general sense of well being has improved”. The “muscle pain (patient report)” value (muscle pain; [5]) was “muscle pain had subsided noticeably”, the “pain after the patient recommenced the Q10 treatment” value (muscle pain; treatment recommenced) was “the pain diminished within a short period” and the “muscle pain after the patient stopped taking the Q10” value (muscle pain; treatment stopped on one occasion) was “the muscle pain returned”. The “self assessed (absence of) pain levels, FIG. 1” value (chronic fatigue syndrome; 30 day period, 100 mg of Q10 per day from day 1, 200 mg per day from day 10) was “increasing absence of muscle pain”, the “Feeling of Well Being” value (chronic fatigue syndrome; Day 1) was 4 and the “Absence of Muscle Pain” value (chronic fatigue syndrome; Day 1, patient required 2x analgesic tablets) was 3*. For the same compound, the “Heavy Work (1 hour)” value (chronic fatigue syndrome; [6]) was 0, the “Light Work/Walking” value (chronic fatigue syndrome; [6]) was 4 and the “Sedentary Work” value (chronic fatigue syndrome; [6]) was 3. The “Work: teacher” value (chronic fatigue syndrome; [6]) was 0, the “Wellness Score (out of 60)” value (chronic fatigue syndrome; Day 1) was 14 and the “Feeling of Well Being” value (chronic fatigue syndrome; Day 2) was 4. For the same compound, the “Absence of Muscle Pain” value (chronic fatigue syndrome; Day 2, patient required 2 × 2 (4) analgesic tablets) was 3**, the “Heavy Work (1 hour)” value (chronic fatigue syndrome; [7]) was 0 and the “Light Work/Walking” value (chronic fatigue syndrome; [7]) was 4. For the same compound, the “Sedentary Work” value (chronic fatigue syndrome; [7]) was 3, the “Work: teacher” value (chronic fatigue syndrome; [7]) was 0 and the “Wellness Score (out of 60)” value (chronic fatigue syndrome; Day 2) was 14. For the same compound, the “Feeling of Well Being” value (chronic fatigue syndrome; Day 3) was 5, the “Absence of Muscle Pain” value (chronic fatigue syndrome; Day 3) was 7 and the “Light Work/Walking” value (chronic fatigue syndrome; [8]) was 6. For the same compound, the “Sedentary Work” value (chronic fatigue syndrome; [8]) was 4, the “Work: teacher” value (chronic fatigue syndrome; [8]) was 0 and the “Heavy Work (1 hour)” value (chronic fatigue syndrome; Day 3, self rated 0-10, patient performed only ½ hour heavy work) was 3***. The “Wellness Score (out of 60)” value (chronic fatigue syndrome; Day 3) was 25, the “Feeling of Well Being” value (chronic fatigue syndrome; Day 4) was 6 and the “Absence of Muscle Pain” value (chronic fatigue syndrome; Day 4) was 7. The “Light Work/Walking” value (chronic fatigue syndrome; [9]) was 6, the “Sedentary Work” value (chronic fatigue syndrome; [9]) was 5 and the “Work: teacher” value (chronic fatigue syndrome; [9]) was 0. For the same compound, the “Heavy Work (1 hour)” value (chronic fatigue syndrome; Day 4, self rated 0-10, patient performed only ½ hour heavy work) was 3***, the “Wellness Score (out of 60)” value (chronic fatigue syndrome; Day 4) was 27 and the “Feeling of Well Being” value (chronic fatigue syndrome; Day 5) was 7. For the same compound, the “Absence of Muscle Pain” value (chronic fatigue syndrome; Day 5) was 7, the “Light Work/Walking” value (chronic fatigue syndrome; [10]) was 7 and the “Sedentary Work” value (chronic fatigue syndrome; [10]) was 6. For the same compound, the “Work: teacher” value (chronic fatigue syndrome; [10]) was 0, the “Heavy Work (1 hour)” value (chronic fatigue syndrome; Day 5, self rated 0-10, patient performed only ½ hour heavy work) was 3*** and the “Wellness Score (out of 60)” value (chronic fatigue syndrome; Day 5) was 30. For the same compound, the “Feeling of Well Being” value (chronic fatigue syndrome; Week 2) was 7, the “Absence of Muscle Pain” value (chronic fatigue syndrome; Week 2) was 7 and the “Heavy Work (1 hour)” value (chronic fatigue syndrome; [11]) was 5. For the same compound, the “Light Work/Walking” value (chronic fatigue syndrome; [11]) was 7, the “Sedentary Work” value (chronic fatigue syndrome; [11]) was 7 and the “Work: teacher” value (chronic fatigue syndrome; [11]) was 3. The “Wellness Score (out of 60)” value (chronic fatigue syndrome; Week 2) was 36, the “Feeling of Well Being” value (chronic fatigue syndrome; Week 12) was 9 and the “Absence of Muscle Pain” value (chronic fatigue syndrome; Week 12) was 9. For the same compound, the “Heavy Work (1 hour)” value (chronic fatigue syndrome; [12]) was 8, the “Light Work/Walking” value (chronic fatigue syndrome; [12]) was 9 and the “Sedentary Work” value (chronic fatigue syndrome; [12]) was 9. For the same compound, the “Work: teacher” value (chronic fatigue syndrome; [12]) was 8, the “Wellness Score (out of 60)” value (chronic fatigue syndrome; Week 12) was 52 and the “CK (creatine kinase concentration)” value (creatine kinase; WK(0), baseline before Q10, normal range 0-200, one line per patient) was 175 units/L and 69 units/L and 39 units/L and 160 units/L. The “CK (creatine kinase concentration)” value (creatine kinase; WK(+4), 300 mg Q10 daily from WK(0), normal range 0-200, one line per patient) was 127 units/L and 78 units/L and 32 units/L and 148 units/L, the “change in PRI scores (overall statement)” value [3, 13] was “Marginal decreases” and the “PRI (Pain Rating Index), first score” value [3, 14] was 22 and 0 and 48 and 19. For the same compound, the “PRI (Pain Rating Index), second score” value [3, 14] was 10 and 0 and 21 and 7, the “PPI (Present Pain Intensity)” value ([3]; WK(+1), 300 mg Q10 daily from WK(0), score 0 to 5) was 2 and 0 and 3 and 1 and the “PRI (Pain Rating Index), first score” value [3, 15] was 25 and 9 and 54 and 10. For the same compound, the “PRI (Pain Rating Index), second score” value [3, 15] was 11 and 6 (2×) and 23, the “PPI (Present Pain Intensity)” value ([3]; WK(+2), 300 mg Q10 daily from WK(0), score 0 to 5) was 2 (3×) and 1 and the “PRI (Pain Rating Index), first score” value [3, 4] was 8 and 4 and 46 and 9. For the same compound, the “PRI (Pain Rating Index), second score” value [3, 4] was 4 and 1 and 20 and 5, the “PPI (Present Pain Intensity)” value ([3]; WK(+4), 300 mg Q10 daily from WK(0), score 0 to 5) was 2 (3×) and 1 and the “PRI (Pain Rating Index), first score” value ([3]; WK(−1), baseline before Q10) was 15 and 10 and 69 and 12. For the same compound, the “PRI (Pain Rating Index), second score” value ([3]; WK(−1), baseline before Q10) was 5 (2×) and 3 and 30, the “PPI (Present Pain Intensity)” value ([3]; WK(−1), baseline before Q10, score 0 to 5 (5 = excruciating pain)) was 2 and the “change in FIS scores (overall statement)” value (statin induced fatigue; [13]) was “Marginal decreases”. The “FIS (Fatigue Impact Scale)” value (statin induced fatigue; [14]) was 42 and 19 and 91 and 18, the “FIS (Fatigue Impact Scale)” value (statin induced fatigue; [15]) was 47 and 44 and 90 and 16 and the “FIS (Fatigue Impact Scale)” value (statin induced fatigue; [4]) was 43 and 6 and 90 and 16. The “FIS (Fatigue Impact Scale)” value (statin induced fatigue; WK(−1), baseline before Q10, patients on statin therapy) was 48 and 39 and 104 and 15.
